Measurements published in US11464770B2, “Anticancer pharmaceutical composition” (NATIONAL CANCER CENTER, priority 2016, dated 2022).
Like-named read-outs stand apart in the source and are kept apart here.

How the values were obtained:
renal cancer cell lines = experiment: Cell based assay, cell viability (CellTiter-Glo), renal cancer cell lines; details: Homo sapiens; ACHN cells
Procedure: (§1) Commercially available bladder cancer, prostate cancer, lung cancer, breast cancer, blood cancer, pancreatic cancer, colorectal cancer, brain cancer, neuroblastoma, melanoma, liver cancer, cervical carcinoma, ovarian cancer, renal cancer, and papilloma cell lines were each treated with trypsin-EDTA and cultured, followed by being seeded in each well of a 96 well plate. After 24 hours of treatment at constant temperature, the respective cells were treated with the candidate compound so that a final concentration became 0 to 2 μM. The treated cells were additionally cultured for 72 hours, and cell viability was measured by using an ATP detection method (CellTiter-Glo® Luminescent Cell Viability Assay, Promega).

[1] = test system: breast cancer cell lines (e.g. MDA-MB-231, SK-BR-3, MDA-MB-468, HCC1954); experiment: Cell based assay, cell viability (CellTiter-Glo), breast cancer cell lines; details: 72 hours, CellTiter-Glo
Procedure: as §1

[2] = test system: cervical carcinoma cell lines; experiment: Cell based assay, cell viability (CellTiter-Glo), cervical carcinoma cell lines; details: Homo sapiens; HeLa cells
Procedure: as §1, with “After 24 hours of treatment at constant temperature, the respective cells were treated with the candidate compound so that a final concentration became 0 to 2 μM.” left out

[3] = Breast cancer cell line MDA-MB-231-L/DOX, read-out: IC50, MDA-MB-231-L/DOX
[4] = Homo sapiens, Breast cancer cell line BT-20, read-out: IC50, BT-20
[5] = Homo sapiens, Breast cancer cell line HCC1395, read-out: IC50, HCC1395
[6] = Homo sapiens, Breast cancer cell line HCC1954, read-out: IC50, HCC1954
[7] = Homo sapiens, Breast cancer cell line JIMT-1, read-out: IC50, JIMT-1
[8] = Homo sapiens, Breast cancer cell line MCF7, read-out: IC50, MCF7
[9] = Homo sapiens, Breast cancer cell line MDA-MB-231, read-out: IC50, MDA-MB-231
[10] = Homo sapiens, Breast cancer cell line MDA-MB-468, read-out: IC50, MDA-MB-468
[11] = Homo sapiens, Breast cancer cell line SK-BR-3, read-out: IC50, SK-BR-3

| SMILES | IC50 (renal cancer cell lines) | IC50 [1, 3] | IC50 [1, 4] | IC50 [1, 5] | IC50 [1, 6] | IC50 [1, 7] | IC50 [1, 8] | IC50 [1, 9] | IC50 [1, 10] | IC50 [1, 11] | IC50 [2] |
| --- | --- | --- | --- | --- | --- | --- | --- | --- | --- | --- | --- |
| CC(=O)c1c(SCc2ccccc2)[nH]c2c(Br)ccc(Cl)c2c1=O [Compound 3, 3-acetyl-2-(benzylthio)-8-bromo-5-chloroquinolin-4(1H)-one] | > 2000 nM | > 2000 nM | > 2000 nM | > 10000 nM | > 2000 nM | > 10000 nM | > 2000 nM | > 2000 nM | > 2000 nM | > 2000 nM | > 10000 nM |
| CC(=O)c1c([S+]([O-])Cc2ccccc2)nc2c(Br)ccc(Cl)c2c1O (stereo not shown) [Compound 4] | > 2000 nM | – | > 2000 nM | > 10000 nM | > 2000 nM | > 10000 nM | > 2000 nM | > 2000 nM | > 2000 nM | 910 nM | > 10000 nM |
| CSc1c(C(C)=O)c(=O)c2cc(F)ccc2n1C [Compound 7, 3-acetyl-6-fluoro-1-methyl-2-(methylthio)quinolin-4(1H)-one] | > 2000 nM | > 2000 nM | > 2000 nM | > 10000 nM | > 2000 nM | > 10000 nM | > 2000 nM | > 2000 nM | > 2000 nM | > 2000 nM | > 10000 nM |
| CSc1[nH]c2ccc(F)cc2c(=O)c1C(C)=O [Compound 8, 1-(6-fluoro-4-hydroxy-2-(methylthio)quinolin-3-yl)ethan-1-one] | > 2000 nM | > 2000 nM | > 2000 nM | > 10000 nM | > 2000 nM | > 10000 nM | > 2000 nM | > 2000 nM | > 2000 nM | > 2000 nM | > 10000 nM |
| CC(=O)c1c([S+](C)[O-])n(C(=O)c2ccc(Br)cc2)c2c(Br)ccc(Cl)c2c1=O (stereo not shown) [Compound 9, 3-acetyl-8-bromo-1-(4-bromobenzoyl)-5-chloro-2-(methylsulfinyl)quinolin-4(1H)-one] | > 2000 nM | > 2000 nM | > 2000 nM | > 10000 nM | > 2000 nM | > 10000 nM | > 2000 nM | > 2000 nM | > 2000 nM | 850 nM | > 10000 nM |
| CC(=O)c1c(Sc2ccccc2)[nH]c2c(Br)ccc(Cl)c2c1=O [Compound 12, 3-acetyl-8-bromo-5-chloro-2-(phenylthio)quinolin-4(1H)-one] | > 2000 nM | > 2000 nM | > 2000 nM | > 10000 nM | > 2000 nM | > 10000 nM | > 2000 nM | > 2000 nM | > 2000 nM | > 2000 nM | > 10000 nM |
| COc1ccccc1Sc1[nH]c2c(Br)ccc(Cl)c2c(=O)c1C(C)=O [Compound 14, 3-acetyl-8-bromo-5-chloro-2-((2-methoxyphenyl)thio)quinolin-4(1H)-one] | > 2000 nM | > 2000 nM | > 2000 nM | > 10000 nM | > 2000 nM | > 10000 nM | > 2000 nM | > 2000 nM | > 2000 nM | > 2000 nM | > 10000 nM |
| CC(=O)c1c(Sc2ccc(Br)cc2)[nH]c2c(Br)ccc(Cl)c2c1=O [Compound 16, 3-acetyl-8-bromo-2-((4-bromophenyl)thio)-5-chloroquinolin-4(1H)-one] | > 2000 nM | > 2000 nM | > 2000 nM | > 10000 nM | > 2000 nM | > 10000 nM | > 2000 nM | > 2000 nM | > 2000 nM | > 2000 nM | > 10000 nM |
| CSc1c(C(C)=O)c(=O)c2c(Cl)ccc(Br)c2n1C(C)=O [Compound 18, 1,1′-(8-bromo-5-chloro-2-(methylthio)-4-oxoquinoline-1,3(4H)-diyl)bis(ethan-1-one)] | > 2000 nM | > 2000 nM | > 2000 nM | > 10000 nM | > 2000 nM | > 10000 nM | > 2000 nM | > 2000 nM | > 2000 nM | > 2000 nM | > 10000 nM |

The next lines start with the values.

| IC50 (renal cancer cell lines) | IC50 [1, 3] | IC50 [1, 4] | IC50 [1, 5] | IC50 [1, 6] | IC50 [1, 7] | IC50 [1, 8] | IC50 [1, 9] | IC50 [1, 10] | IC50 [1, 11] | IC50 [2] | SMILES |
| --- | --- | --- | --- | --- | --- | --- | --- | --- | --- | --- | --- |
| > 2000 nM | > 2000 nM | > 2000 nM | > 10000 nM | > 2000 nM | > 10000 nM | > 2000 nM | > 2000 nM | > 2000 nM | 1090 nM | > 10000 nM | CC(=O)c1c([S+](C)[O-])[nH]c2c(Br)ccc(Cl)c2c1=O (stereo not shown) [Compound 1, 3-acetyl-8-bromo-5-chloro-2-(methylsulfinyl)quinolin-4(1H)-one] |
| > 2000 nM | > 2000 nM | > 2000 nM | > 10000 nM | > 2000 nM | > 10000 nM | > 2000 nM | > 2000 nM | > 2000 nM | > 2000 nM | > 10000 nM | CSc1[nH]c2c(Br)ccc(Cl)c2c(=O)c1C(C)=O [Compound 2, 3-acetyl-8-bromo-5-chloro-2-(methylthio)quinolin-4(1H)-one] |
| > 2000 nM | > 2000 nM | > 2000 nM | > 10000 nM | > 2000 nM | > 10000 nM | > 2000 nM | > 2000 nM | > 2000 nM | > 2000 nM | > 10000 nM | CSc1c(C(C)=O)c(=O)c2c(Cl)ccc(Br)c2n1C [Compound 5, 3-acetyl-8-bromo-5-chloro-1-methyl-2-(methylthio)quinolin-4(1H)-one] |
| > 2000 nM | > 2000 nM | > 2000 nM | > 10000 nM | > 2000 nM | > 10000 nM | > 2000 nM | > 2000 nM | > 2000 nM | 1120 nM | > 10000 nM | CC(=O)c1c([S+](C)[O-])[nH]c2c(Cl)ccc(Cl)c2c1=O (stereo not shown) [Compound 6, 3-acetyl-5,8-dichloro-2-(methylsulfinyl)quinolin-4(1H)-one] |
| > 2000 nM | > 2000 nM | > 2000 nM | > 10000 nM | > 2000 nM | > 10000 nM | > 2000 nM | > 2000 nM | > 2000 nM | > 2000 nM | > 10000 nM | CC(=O)c1c(SCc2ccc(Cl)cc2)[nH]c2c(Br)ccc(Cl)c2c1=O [Compound 10, 3-acetyl-8-bromo-5-chloro-2-((4-chlorobenzyl)thio)quinolin-4(1H)-one] |
| > 2000 nM | > 2000 nM | > 2000 nM | > 10000 nM | > 2000 nM | > 10000 nM | > 2000 nM | > 2000 nM | > 2000 nM | > 2000 nM | > 10000 nM | CC(=O)c1c([S+]([O-])Cc2ccc(Cl)cc2)[nH]c2c(Br)ccc(Cl)c2c1=O (stereo not shown) [Compound 11, 3-acetyl-8-bromo-5-chloro-2-((4-chlorobenzyl)sulfinyl)quinolin-4(1H)-one] |
| > 2000 nM | > 2000 nM | > 2000 nM | > 10000 nM | > 2000 nM | > 10000 nM | > 2000 nM | > 2000 nM | > 2000 nM | > 2000 nM | > 10000 nM | CC(=O)c1c([S+]([O-])c2ccccc2)[nH]c2c(Br)ccc(Cl)c2c1=O (stereo not shown) [Compound 13, 3-acetyl-8-bromo-5-chloro-2-(phenylsulfinyl)quinolin-4(1H)-one] |
| > 2000 nM | > 2000 nM | > 2000 nM | > 10000 nM | > 2000 nM | > 10000 nM | > 2000 nM | > 2000 nM | > 2000 nM | 1680 nM | > 10000 nM | COc1ccccc1[S+]([O-])c1[nH]c2c(Br)ccc(Cl)c2c(=O)c1C(C)=O (stereo not shown) [Compound 15, 3-acetyl-8-bromo-5-chloro-2-((2-methoxyphenyl)sulfinyl)quinolin-4(1H)-one] |
| > 2000 nM | > 2000 nM | > 2000 nM | > 10000 nM | > 2000 nM | > 10000 nM | > 2000 nM | > 2000 nM | > 2000 nM | > 2000 nM | > 10000 nM | CC(=O)c1c([S+]([O-])c2ccc(Br)cc2)[nH]c2c(Br)ccc(Cl)c2c1=O (stereo not shown) [Compound 17, 3-acetyl-8-bromo-2-((4-bromophenyl)sulfinyl)-5-chloroquinolin-4(1H)-one] |
| > 2000 nM | > 2000 nM | > 2000 nM | > 10000 nM | > 2000 nM | > 10000 nM | > 2000 nM | > 2000 nM | > 2000 nM | > 2000 nM | > 10000 nM | CC(=O)c1c([S+](C)[O-])n(C(C)=O)c2c(Br)ccc(Cl)c2c1=O (stereo not shown) [Compound 19, 1,1′-(8-bromo-5-chloro-2-(methylsulfinyl)-4-oxoquinoline-1,3(4H)-diyl)bis(ethan-1-one)] |
